Results from US10124004B2, “Pyrido[3,4-d]pyrimidine derivative and pharmaceutically acceptable salt thereof” (Teijin Pharma Limited, priority 2015, dated 2018).
Like-named read-outs stand apart in the source and are kept apart here.

Tests used:
[1] = biological target: T1, CDK2/cyclin A2 (Homo sapiens, UniProt P24941); assay: Human CDK2/cyclin A2 inhibitory activity (QS S Assist CDK2/Cyclin A2_FP Kit, IMAP fluorescence polarization); assay type: biochemical
T1 construct: purchased Carna Biosciences, Inc. QS S Assist CDK2/Cyclin A2_FP Kit
Outline: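 Kinase activity read as fluorescence polarization (485/535 nm) after phosphorylated fluorescent substrate binds IMAP reagent (30 min, RT, dark). Enzyme (2.5 ng/well) reacted 60 min at RT with ATP/substrate/metal in HEPES pH 7.4 buffer with Tween 20 and DTT; no-enzyme wells define 0% activity; IC50 by curve fit.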

[2] = biological target: T2, CDK4/cyclin D3 (Homo sapiens, UniProt P11802); assay: Human CDK4/cyclin D3 inhibitory activity (QS S Assist CDK4/Cyclin D3_FP Kit, IMAP fluorescence polarization); assay type: biochemical
T2 construct: purchased Carna Biosciences, Inc. QS S Assist CDK4/Cyclin D3_FP Kit
T2 sequence (P11802 whole entry): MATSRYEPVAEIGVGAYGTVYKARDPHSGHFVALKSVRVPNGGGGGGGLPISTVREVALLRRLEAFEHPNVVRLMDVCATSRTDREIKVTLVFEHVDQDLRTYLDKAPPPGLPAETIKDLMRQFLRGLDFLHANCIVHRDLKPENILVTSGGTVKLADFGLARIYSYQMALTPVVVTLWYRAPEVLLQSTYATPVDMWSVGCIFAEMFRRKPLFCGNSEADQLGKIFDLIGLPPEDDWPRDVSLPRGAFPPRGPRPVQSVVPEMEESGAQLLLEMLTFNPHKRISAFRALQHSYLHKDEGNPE
T2 sequence (P30281 whole entry partner): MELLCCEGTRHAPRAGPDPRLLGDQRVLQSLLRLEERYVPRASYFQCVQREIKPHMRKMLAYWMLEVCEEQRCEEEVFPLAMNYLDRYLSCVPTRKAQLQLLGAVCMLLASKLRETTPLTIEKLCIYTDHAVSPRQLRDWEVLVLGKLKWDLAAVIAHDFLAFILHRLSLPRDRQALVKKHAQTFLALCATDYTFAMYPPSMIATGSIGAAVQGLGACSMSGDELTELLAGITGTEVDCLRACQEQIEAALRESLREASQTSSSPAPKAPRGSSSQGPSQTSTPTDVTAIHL
Outline: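 IMAP fluorescence-polarization kinase assay with kit ATP/substrate/metal mix and 12.5 to 25 ng/well enzyme in 20 mM HEPES pH 7.4, 0.01% Tween20, 2 mM DTT. Reaction ran 45 min at room temperature, then binding reagent was added for 30 min in the dark. IC50 was taken from dose-response fits of percent inhibition.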

[3] = Human CDK2/cyclin A2 inhibitory activity, read-out: CDK2 Activity symbol
[4] = Human CDK4/cyclin D3 inhibitory activity, read-out: CDK4 Activity symbol
[5] = 50% inhibitory concentration against CDK2/cyclin A2, given as class symbol
[6] = 50% inhibitory concentration against CDK4/cyclin D3, given as class symbol

IC50 [1, 3] [nM]	IC50 [2, 4] [nM]	IC50 [1, 5] [nM]	IC50 [2, 6] [nM]	Structure (SMILES)
≥ 100	< 10	–	–	CC(C)Nc1nc([C@@H](C)O)cc2cnc(Nc3ccc(CCCN4CCOCC4=O)cn3)nc12 [Compound 229]
–	–	≥ 100	< 10	CNCCOc1ccc(Nc2ncc3cc([C@@H](C)O)nc(N(C)[C@H]4CCCOC4)c3n2)nc1 [Compound 868]
–	–	≥ 100	< 10	CCCNc1nc([C@@H](C)OC)cc2cnc(Nc3ccc(N4C[C@H]5C[C@@H]4CN5)nn3)nc12 [Compound 858]
≥ 100	< 10	–	–	CC(=O)c1cc2cnc(Nc3ccc(N4CCNCC4)cn3)nc2c(NC2CCCC2)n1 [Compound 57]
≥ 100	10 to 100	–	–	COCC(C)(C)Nc1nc([C@@H](C)O)cc2cnc(Nc3ccc(CN4CCNC(=O)C4)cn3)nc12 [Compound 182]
≥ 100	< 10	–	–	CNCCOc1ccc(Nc2ncc3cc([C@@H](C)O)nc(NC(C)C)c3n2)nc1 [Compound 529]
–	–	≥ 100	< 10	CC(C)Nc1nc([C@@H](C)O)cc2cnc(Nc3ccc(N4CCN(C(=O)C(C)C)CC4)nn3)nc12 [Compound 746]
≥ 100	10 to 100	–	–	CC(C)Nc1nc(C(F)F)cc2cnc(Nc3ccc(OCCCN4CCCC4=O)cn3)nc12 [Compound 123]
≥ 100	< 10	–	–	CO[C@H](C)c1cc2cnc(Nc3ccc(CN4CCNC5(CC5)C4)cn3)nc2c(N[C@H]2CCCOC2)n1 [Compound 378]
–	–	≥ 100	10 to 100	CCNc1nc([C@@H](C)O)cc2cnc(Nc3ccc4c(n3)CCN(C(=O)CO)C4)nc12 [Compound 1117]
–	–	≥ 100	10 to 100	O=C1CNCCN1c1ccc(Nc2ncc3cc(C(F)F)nc(NCC4CCOCC4)c3n2)nc1 [Compound 823]
≥ 100	10 to 100	–	–	C[C@@H](O)c1cc2cnc(Nc3ccc(N4CCNCC4)nn3)nc2c(NC(C)(C)CC(=O)O)n1 [Compound 327]
≥ 100	< 10	–	–	CC(C)Nc1nc(C(C)O)cc2cnc(Nc3ccc(N4CCC(O)C(F)C4)nn3)nc12 (centres unmarked) [Compound 608]
–	–	≥ 100	< 10	Cc1nc(Nc2ncc3cc([C@@H](C)O)nc(NCC4CC4)c3n2)ccc1N1CCNCC1 [Compound 1095]
–	–	≥ 100	< 10	COC1CCC(Nc2nc([C@@H](C)OC)cc3cnc(Nc4ccc(N5CCNCC5)nn4)nc23)CC1 (some centres unmarked) [Compound 711]
–	–	≥ 100	< 10	CCNc1nc([C@@H](C)O)cc2cnc(Nc3ccc(N4CCNCC4)c(C)n3)nc12 [Compound 1091]
10 to 100	< 10	–	–	CC(C)Nc1nc(C(F)F)cc2cnc(Nc3ccc(C(=O)N4CCOCC4)cn3)nc12 [Compound 169]
–	–	≥ 100	< 10	C[C@@H](O)c1cc2cnc(Nc3ccc(CN4CCC(CO)CC4)cn3)nc2c(NC(C)(C)C)n1 [Compound 1021]
–	–	≥ 100	< 10	CC(C)Nc1nc(C(C)O)cc2cnc(Nc3ccc(N4CCNCC4C(F)(F)F)cn3)nc12 (single isomer, unassigned) [Compound 775]
≥ 100	10 to 100	–	–	CC(C)Nc1nc(C(F)F)cc2cnc(Nc3ccc(CN4CCN(S(=O)(=O)N(C)C)CC4)cn3)nc12 [Compound 114]

IC50 [1, 3] [nM]	IC50 [2, 4] [nM]	IC50 [1, 5] [nM]	IC50 [2, 6] [nM]	Structure (SMILES)
10 to 100	< 10	–	–	CO[C@H](C)c1cc2cnc(Nc3ccc(N4C[C@H]5CCN[C@H]5C4=O)cn3)nc2c(NC(C)C)n1 [Compound 556]
≥ 100	< 10	–	–	C[C@@H](O)c1cc2cnc(Nc3ccc(N4CCN(C=O)CC4=O)cn3)nc2c(N[C@@H]2CCCOC2)n1 [Compound 351]
≥ 100	< 10	–	–	CC(=O)c1cc2cnc(Nc3ccc(CN4CCNCC4)cn3)nc2c(NC(C)C)n1 [Compound 329]
–	–	≥ 100	10 to 100	CO[C@H](C)c1cc2cnc(Nc3ccc(CN4CCN(C5COC5)CC4)cn3)nc2c(NC(C)C)n1 [Compound 681]
–	–	≥ 100	< 10	C[C@@H](O)c1cc2cnc(Nc3ccc4c(n3)CCN(CCN(C)C)C4)nc2c(N[C@H]2CCCOC2)n1 [Compound 1140]
10 to 100	< 10	–	–	C[C@@H](O)c1cc2cnc(Nc3ccc(N4CCNCC4=O)cn3)nc2c(N[C@H]2CC[C@H](C)CC2)n1 [Compound 612]
–	–	≥ 100	< 10	CC(C)Nc1nc([C@@H](C)O)cc2cnc(Nc3ccc(N4CCN(C(C)C#N)CC4=O)cn3)nc12 (some centres unmarked) [Compound 936]
–	–	≥ 100	< 10	CC(C)Sc1nc([C@@H](C)O)cc2cnc(Nc3ccc(N4CCNCC4=O)cn3)nc12 [Compound 744]
≥ 100	< 10	–	–	COC(C)c1cc2cnc(Nc3ccc(CN4CCNCC4)cn3)nc2c(NCC2CCCOC2)n1 (centres unmarked) [Compound 400]
–	–	≥ 100	< 10	CN(C)CCN1CCc2nc(Nc3ncc4cc(C5CCOC5)nc(N[C@H]5CCCOC5)c4n3)ccc2C1 (some centres unmarked) [Compound 1178]
≥ 100	10 to 100	–	–	CO[C@H](C)c1cc2cnc(Nc3ccc(N4CCC(O)CC4)nn3)nc2c(NC(C)C)n1 [Compound 201]
≥ 100	10 to 100	–	–	C[C@@H](O)c1cc2cnc(Nc3ccc(CN4CCNCC4)cn3)nc2c(NC2(C(=O)O)CCCC2)n1 [Compound 325]
–	–	≥ 100	< 10	CC(C)Nc1nc([C@@H](C)O)cc2cnc(Nc3ccc4c(n3)CCN(C(=O)CO)C4)nc12 [Compound 651]
10 to 100	< 10	–	–	CC(C)Nc1nc(C(F)F)cc2cnc(Nc3ccc(CC(N)=O)cn3)nc12 [Compound 132]
–	–	≥ 100	10 to 100	CC(C)Nc1nc([C@@H](C)O)cc2cnc(Nc3ccc4c(n3)CCN(S(=O)(=O)N(C)C)C4)nc12 [Compound 935]
–	–	≥ 100	< 10	CCNc1nc([C@@H](C)O)c(C)c2cnc(Nc3ccc(CN4CCN(CCO)CC4)cn3)nc12 [Compound 1168]
–	–	≥ 100	< 10	CC(C)Nc1nc([C@@H](C)O)cc2cnc(Nc3ccc(N4CCN(CC(=O)N5CCCC5)CC4)nn3)nc12 [Compound 966]
–	–	≥ 100	< 10	C[C@@H](O)c1cc2cnc(Nc3ccc(CN4CCCC(O)C4)cn3)nc2c(NC2CCC2)n1 (some centres unmarked) [Compound 1084]
–	–	≥ 100	10 to 100	CC(C)Nc1nc([C@@H](C)O)cc2cnc(Nc3cc4c(cn3)CNCC4)nc12 [Compound 694]
–	–	≥ 100	< 10	CC(C)Nc1nc([C@@H](C)O)cc2cnc(Nc3ccc(N4CCNCC4C(F)(F)F)cn3)nc12 (some centres unmarked) [Compound 764]

IC50 [1, 3] [nM]	IC50 [2, 4] [nM]	IC50 [1, 5] [nM]	IC50 [2, 6] [nM]	Structure (SMILES)
–	–	≥ 100	< 10	CC(C)Nc1nc([C@@H](C)O)cc2cnc(Nc3ccc(N4CCN(CC#N)CC4)nn3)nc12 [Compound 901]
≥ 100	< 10	–	–	CC(C)Nc1nc(C(C)O)cc2cnc(Nc3ccc(N4CCCC(O)C4)nn3)nc12 (single isomer, unassigned) [Compound 581]
≥ 100	< 10	–	–	C[C@@H](O)c1cc2cnc(Nc3ccc(N4CCNCC4)nn3)nc2c(N[C@H]2CC[C@H](O)CC2)n1 [Compound 340]
≥ 100	< 10	–	–	CO[C@H](C)c1cc2cnc(Nc3ccc(N4CCNCC4)nn3)nc2c(NC2CCOCC2)n1 [Compound 285]
–	–	≥ 100	10 to 100	CO[C@H](C)c1cc2cnc(Nc3ccc(N4CCN(CC(=O)O)CC4C(F)(F)F)cn3)nc2c(NC(C)C)n1 (some centres unmarked) [Compound 891]
–	–	≥ 100	10 to 100	CCCNc1nc(C(C)=O)cc2cnc(Nc3ccc(N4CCNCC4)cn3)nc12 [Compound 1028]
–	–	≥ 100	< 10	CC(C)Nc1nc([C@H](C)F)cc2cnc(Nc3ccc(N4CCNCC4)nn3)nc12 [Compound 698]
–	–	≥ 100	10 to 100	CC(C)Nc1nc([C@@H](C)O)cc2cnc(Nc3ccc(N4CCC(OCC(=O)O)CC4)nn3)nc12 [Compound 702]
≥ 100	< 10	–	–	CO[C@H](C)c1cc2cnc(Nc3ccc(CN4CCNCC4)nn3)nc2c(NC(C)C)n1 [Compound 246]
10 to 100	< 10	–	–	FC(F)c1cc2cnc(Nc3ccc(N4CCNCC4)cn3)nc2c(NC2CCCC2)n1 [Compound 1]
≥ 100	10 to 100	–	–	CC(C)Nc1nc(C(=O)N(C)C)cc2cnc(Nc3ccc(N4CCNCC4)cn3)nc12 [Compound 34]
–	–	≥ 100	< 10	CC(=O)c1cc2cnc(Nc3ccc(N4CCNCC4)nn3)nc2c(NC(C)(C)C)n1 [Compound 909]
–	–	≥ 100	< 10	CCCCNc1nc([C@@H](C)O)cc2cnc(Nc3ccc(CN4CCC(CO)CC4)cn3)nc12 [Compound 1148]
–	–	≥ 100	< 10	CC(C)Nc1nc(C2CCOC2)cc2cnc(Nc3ccc(CN4CCN(CC#N)CC4)cn3)nc12 (centres unmarked) [Compound 1014]
10 to 100	< 10	–	–	CC(C)Nc1nc(C(F)F)cc2cnc(Nc3ccc(CN4CCCCC4C(=O)O)cn3)nc12 (centres unmarked) [Compound 194]
–	–	≥ 100	< 10	COC[C@@H](C)Nc1nc([C@@H](C)OC)cc2cnc(Nc3ccc(CN4CCN(CCO)CC4)cn3)nc12 [Compound 916]
≥ 100	< 10	–	–	CC(C)Nc1nc(C(F)F)cc2cnc(Nc3ccc(C4CCS(=O)(=O)CC4)cn3)nc12 [Compound 159]
≥ 100	< 10	–	–	C[C@@H](O)c1nc(N[C@H]2CCCOC2)c2nc(Nc3ccc(CN4CCNCC4)cn3)ncc2c1Cl [Compound 369]
